Active and inactive are the calls of the source. The calls are words filed in the database; no cut-off is given here.
Tests used:
Glioblastoma cell line [1] = experiment: Cytotoxicity against human glioblastoma cell P1S cells assessed as reduction in cell viability upto 30 uM by MTT assay; format: functional, cell-based; details: dose microM <=30, time hrs <=72, TDE = time-dependent effect
A 172 [2] = experiment: Induction of cell cycle arrest in human A 172 cells assessed as increase in histone H3-S10 dephosphorylation upto 10 uM for 24 hrs by Western blot analysis; format: functional, cell-based; details: dose microM <=10, time 24.0 hrs
U-87 MG [3] = experiment: Antiproliferation activity against human U-87 MG cells assessed as growth inhibition measured after 1 hr by MTT assay; format: functional, cell-based, U-87MG ATCC
A 172 [4] = experiment: Cytotoxicity against human A 172 cells assessed as reduction in cell viability upto 72 hrs by MTT assay; format: functional, cell-based; details: dose microM <=30, time hrs <=72
A 172 [5] = experiment: Induction of cell cycle arrest in human A 172 cells assessed as accumulation at G2/M phase by propidium iodide staining based flow cytometric analysis; format: functional; details: dose microM <=10
Glioblastoma cell line [6] = experiment: Cytotoxicity against human glioblastoma cell P5 cells assessed as reduction in cell viability upto 72 hrs by MTT assay; format: functional, cell-based; details: dose microM <=30, time hrs <=72
A 172 [7] = experiment: Effect on cyclin B1 expression in human A 172 cells upto 10 uM after 24 hrs by Western blot analysis; format: functional, cell-based; details: dose microM <=10, time 24.0 hrs
A 172 [8] = experiment: Downregulation of PCNA expression in human A 172 cells upto 10 uM measured after 24 hrs by Western blot analysis; format: functional, cell-based; details: dose microM <=10, time 24.0 hrs
A 172 [9] = experiment: Induction of apoptosis in human A 172 cells assessed as upregulation of cleaved PARP at 3 uM after 24 hrs by western blot analysis; format: functional, cell-based
Histone deacetylase 3 = Histone deacetylase 3 (Homo sapiens, UniProt O15379); experiment: Inhibition of human recombinant HDAC3 using [RHKK(Ac)] fluorogenic substrate
Glioblastoma cell line [10] = experiment: Cytotoxicity against human glioblastoma cell P3 cells assessed as reduction in cell viability upto 72 hrs by MTT assay; format: functional, cell-based; details: dose microM <=30, time hrs <=72
A 172 [11] = experiment: Induction of cell cycle arrest in human A 172 cells assessed as sub-G1 population upto 10 uM after 2 days by flow cytometry/PI staining assay; format: functional, cell-based; details: dose microM <=10, time 2.0 day
[12] = target: Cyclin-dependent kinase 1/cyclin B1 (Homo sapiens) (UniProt P06493+P14635); experiment: Inhibition of CDK1/Cyclin B interaction in human A 172 cells assessed as CDK1 acetylation at 3 uM for 24 hrs by Western blot analysis; format: cell-based
U-87 MG [13] = experiment: Antiproliferation activity against TMZ resistant human U-87 MG R-50 cells assessed as growth inhibition at 3 uM by MTT assay; format: functional, cell-based; details: U-87MG ATCC
A 172 [14] = experiment: Cytotoxicity against TMZ-resistant human A 172 cells assessed as reduction in cell viability upto 30 uM by MTT assay; format: functional, cell-based; details: dose microM <=30, time hrs <=72, TDE = time-dependent effect
Glioblastoma cell line [15] = experiment: Cytotoxicity against human glioblastoma cell P1S cells assessed as reduction in cell viability upto 72 hrs by MTT assay; format: functional, cell-based; details: dose microM <=30, time hrs <=72
U-87 MG [16] = experiment: Cytotoxicity against human U-87 MG cells assessed as reduction in cell viability upto 72 hrs by MTT assay; format: functional, cell-based; details: U-87MG ATCC, dose microM <=30, time hrs <=72
Glioblastoma cell line [17] = experiment: Cytotoxicity against TMZ-resistant human glioblastoma cell P5 cells assessed as reduction in cell viability upto 72 hrs by MTT assay; format: functional, cell-based; details: dose microM <=30, time hrs <=72
Glioblastoma cell line [18] = experiment: Antiproliferation activity against TMZ resistant human glioblastoma cell P1S assessed as growth inhibition at 3 uM by MTT assay; format: functional
A 172 [19] = experiment: Induction of cell cycle arrest in human A 172 cells assessed as accumulation at G0/G1 phase by propidium iodide staining based flow cytometric analysis; format: functional; details: dose microM <=10
A 172 [20] = experiment: Induction of cell cycle arrest in human A 172 cells assessed as increase in histone alpha-tubulin-K40 acetylation upto 10 uM for 24 hrs by Western blot analysis; format: functional, cell-based; details: dose microM <=10, time 24.0 hrs
U-87 MG [21] = experiment: Cytotoxicity against TMZ-resistant human U-87 MG cells assessed as reduction in cell viability upto 30 uM by MTT assay; format: functional, cell-based; details: U-87MG ATCC, dose microM <=30, time hrs <=72, TDE = time-dependent effect
U-87 MG [22] = experiment: Cytotoxicity against human U-87 MG cells assessed as reduction in cell viability upto 30 uM by MTT assay; format: functional, cell-based; details: U-87MG ATCC, dose microM <=30, time hrs <=72, TDE = time-dependent effect
A 172 [23] = experiment: Cytotoxicity against human A 172 cells assessed as reduction in cell viability upto 30 uM by MTT assay; format: functional, cell-based; details: dose microM <=30, time hrs <=72, TDE = time-dependent effect
Glioblastoma cell line [24] = experiment: Cytotoxicity against TMZ-resistant human glioblastoma cell P3 cells assessed as reduction in cell viability upto 30 uM by MTT assay; format: functional, cell-based; details: dose microM <=30, time hrs <=72, TDE = time-dependent effect
U-87 MG [25] = experiment: Antiproliferation activity against human U-87 MG cells assessed as growth inhibition at 10 uM after 3 days by MTT assay; format: functional, U-87MG ATCC; details: 72 h, time 3 day
A 172 [26] = experiment: Induction of cell cycle arrest in human A172 cells assessed as accumulation at G1/S phase measured by increase in cyclin E expression upto 10 uM after 24 hrs by Western blot analysis; format: functional, cell-based; details: dose microM <=10, time 24.0 hrs
Histone deacetylase 1 = Histone deacetylase 1 (Homo sapiens, UniProt Q13547); experiment: Inhibition of human recombinant HDAC1 expressed in baculovirus infected insect cells using [RHKK(Ac)] fluorogenic substrate
A 172 [27] = experiment: Induction of apoptosis in human A 172 cells assessed as upregulation of activated caspase 3 protein at 3 uM after 24 hrs by western blot analysis; format: functional, cell-based
A 172 [28] = experiment: Cytotoxicity against TMZ-resistant human A 172 cells assessed as reduction in cell viability upto 72 hrs by MTT assay; format: functional, cell-based; details: dose microM <=30, time hrs <=72
U-87 MG [29] = experiment: Antitumor activity in TMZ-resistant human U-87 MG cells transplanted in BALB/C mouse assessed as increase in mouse survival at 10 mg/kg, ip measured for every 2 days measured for 40 days; format: functional, organism-based; details: U-87MG ATCC, time 40.0 day
[30] = Permeability of compound by PAMPA-BBB assay
Glioblastoma cell line [31] = experiment: Cytotoxicity against TMZ-resistant human glioblastoma cell P5 cells assessed as reduction in cell viability upto 30 uM by MTT assay; format: functional, cell-based; details: dose microM <=30, time hrs <=72, TDE = time-dependent effect
Histone deacetylase 8 = target: T1, Histone deacetylase 8 (Homo sapiens, UniProt Q9BY41); experiment: Inhibition of human recombinant HDAC8 using [RHKK(Ac)] fluorogenic substrate
T1 sequence (Q9BY41 whole entry): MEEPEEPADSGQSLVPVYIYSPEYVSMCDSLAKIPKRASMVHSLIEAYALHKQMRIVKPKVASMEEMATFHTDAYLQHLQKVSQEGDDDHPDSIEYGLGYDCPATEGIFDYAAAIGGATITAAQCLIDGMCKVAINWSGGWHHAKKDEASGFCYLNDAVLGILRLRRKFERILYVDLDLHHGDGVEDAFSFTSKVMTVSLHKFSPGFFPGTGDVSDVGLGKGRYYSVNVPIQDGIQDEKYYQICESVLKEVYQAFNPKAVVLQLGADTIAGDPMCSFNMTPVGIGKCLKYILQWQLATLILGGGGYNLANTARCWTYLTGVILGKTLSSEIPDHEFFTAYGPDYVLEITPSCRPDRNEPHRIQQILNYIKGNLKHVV

U-87 MG [32] = experiment: Cytotoxicity against TMZ-resistant human U-87 MG cells assessed as reduction in cell viability upto 72 hrs by MTT assay; format: functional, cell-based; details: U-87MG ATCC, dose microM <=30, time hrs <=72
A 172 [33] = experiment: Induction of cell cycle arrest in human A 172 cells assessed as increase in histone H3-K9/K14 acetylation upto 10 uM for 24 hrs by Western blot analysis; format: functional, cell-based; details: dose microM <=10, time 24.0 hrs

Chain of Histone deacetylase 3 (O15379 whole entry): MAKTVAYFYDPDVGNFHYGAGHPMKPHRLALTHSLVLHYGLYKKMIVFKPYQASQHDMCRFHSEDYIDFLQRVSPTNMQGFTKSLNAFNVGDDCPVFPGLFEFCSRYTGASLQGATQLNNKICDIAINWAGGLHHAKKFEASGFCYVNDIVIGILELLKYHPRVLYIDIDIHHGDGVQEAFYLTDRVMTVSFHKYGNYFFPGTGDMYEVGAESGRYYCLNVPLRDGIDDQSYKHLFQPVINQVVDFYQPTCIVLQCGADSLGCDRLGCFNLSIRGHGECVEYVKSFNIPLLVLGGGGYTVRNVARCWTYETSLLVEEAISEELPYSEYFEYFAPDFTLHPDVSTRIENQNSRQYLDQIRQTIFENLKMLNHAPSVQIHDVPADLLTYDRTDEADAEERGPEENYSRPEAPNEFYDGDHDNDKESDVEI
Chain of Histone deacetylase 1 (Q13547 whole entry): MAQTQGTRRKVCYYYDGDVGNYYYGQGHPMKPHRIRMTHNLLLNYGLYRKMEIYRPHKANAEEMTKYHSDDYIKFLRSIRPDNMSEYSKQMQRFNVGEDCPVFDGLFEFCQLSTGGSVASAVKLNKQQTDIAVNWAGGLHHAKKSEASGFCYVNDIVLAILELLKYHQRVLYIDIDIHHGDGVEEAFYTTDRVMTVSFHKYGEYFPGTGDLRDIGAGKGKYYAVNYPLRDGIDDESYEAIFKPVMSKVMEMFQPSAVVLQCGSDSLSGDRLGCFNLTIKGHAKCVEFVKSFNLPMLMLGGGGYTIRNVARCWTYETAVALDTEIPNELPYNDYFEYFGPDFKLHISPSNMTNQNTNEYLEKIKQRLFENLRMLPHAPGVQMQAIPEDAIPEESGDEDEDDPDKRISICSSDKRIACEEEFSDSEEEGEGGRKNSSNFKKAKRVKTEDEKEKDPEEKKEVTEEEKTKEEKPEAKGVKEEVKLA
Chain of Cyclin-dependent kinase 1/cyclin B1 (Homo sapiens) (P06493 whole entry, looked up): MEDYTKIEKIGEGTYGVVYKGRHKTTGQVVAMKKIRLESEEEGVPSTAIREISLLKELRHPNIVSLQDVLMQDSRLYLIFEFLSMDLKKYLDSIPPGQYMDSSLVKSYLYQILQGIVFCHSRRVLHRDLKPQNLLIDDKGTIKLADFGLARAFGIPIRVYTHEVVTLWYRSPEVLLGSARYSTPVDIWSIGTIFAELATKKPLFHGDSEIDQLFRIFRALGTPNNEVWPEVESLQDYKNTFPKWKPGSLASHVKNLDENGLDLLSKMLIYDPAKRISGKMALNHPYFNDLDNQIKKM
Chain of Cyclin-dependent kinase 1/cyclin B1 (Homo sapiens) (P14635 whole entry, looked up): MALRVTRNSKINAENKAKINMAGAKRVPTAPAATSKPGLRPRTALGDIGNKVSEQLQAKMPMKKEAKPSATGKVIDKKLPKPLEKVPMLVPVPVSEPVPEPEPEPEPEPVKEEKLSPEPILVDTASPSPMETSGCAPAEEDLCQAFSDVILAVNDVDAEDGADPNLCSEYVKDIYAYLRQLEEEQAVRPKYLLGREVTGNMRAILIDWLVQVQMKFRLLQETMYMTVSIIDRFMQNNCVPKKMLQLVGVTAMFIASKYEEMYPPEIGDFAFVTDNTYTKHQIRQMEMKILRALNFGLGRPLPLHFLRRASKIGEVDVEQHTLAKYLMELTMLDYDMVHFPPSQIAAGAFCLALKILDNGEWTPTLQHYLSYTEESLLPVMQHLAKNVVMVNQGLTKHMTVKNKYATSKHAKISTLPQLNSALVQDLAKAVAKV

IC50 (U-87 MG [3]): 2.95 µM
IC50 (Histone deacetylase 3): 0.806 µM
Activity [12]: Active
IC50 (Histone deacetylase 1): 0.347 µM
Papp [30]: 339 ×10⁻⁶ cm/s
IC50 (Histone deacetylase 8): 0.638 µM
SMILES: CC12CC3CC(C)(C1)CC(NCc1ccc(NC(=O)CCCCCCC(=O)NO)cc1)(C3)C2
Activity (Glioblastoma cell line [1]): Tde
Activity (A 172 [2]): Active
Activity (A 172 [4]): Dose-Dependent Effect
Activity (A 172 [5]): Dose-Dependent Effect
Activity (Glioblastoma cell line [6]): Dose-Dependent Effect
Activity (A 172 [7]): inactive
Activity (A 172 [8]): inactive
Activity (A 172 [9]): Active
Activity (Glioblastoma cell line [10]): Dose-Dependent Effect
Activity (A 172 [11]): Active
Activity (U-87 MG [13]): inactive
Activity (A 172 [14]): Tde
Activity (Glioblastoma cell line [15]): Dose-Dependent Effect
Activity (U-87 MG [16]): Dose-Dependent Effect
Activity (Glioblastoma cell line [17]): Dose-Dependent Effect
Activity (Glioblastoma cell line [18]): inactive
Activity (A 172 [19]): Dose-Dependent Effect
Activity (A 172 [20]): Active
Activity (U-87 MG [21]): Tde
Activity (U-87 MG [22]): Tde
Activity (A 172 [23]): Tde
Activity (Glioblastoma cell line [24]): Tde
inhibition at 10 µM (U-87 MG [25]): 90%
Activity (A 172 [26]): Active
Activity (A 172 [27]): Active
Activity (A 172 [28]): Dose-Dependent Effect
Activity (U-87 MG [29]): Active
Activity (Glioblastoma cell line [31]): Tde
Activity (U-87 MG [32]): Dose-Dependent Effect
Activity (A 172 [33]): Active

— ChEMBL document CHEMBL4814005, “Pragmatic recruitment of memantine as the capping group for the design of HDAC inhibitors: A preliminary attempt to unravel the enigma of glioblastoma” (Eur J Med Chem, 2021)
